# Measured values published in US6916970B2, “Transgenic plants comprising antifungal polypeptides from alfalfa and methods for controlling plant pathogenic fungi” (Monsanto Technology, LLC, priority 1996, dated 2005).
# Tests used:
# [1] = tested on: Verticillium dahliae; experiment: Verticillium wilt disease test on transgenic potato plants expressing AlfAFP1; format: in vivo, potato plants (Solanum tuberosum var. Russet Burbank)
# Description: Conidia and mycelia of a 2-3 week old culture of virulent Verticillium dahliae were used to inoculate a PDA (potatoes, 200 g/l; Bacto dextrose, 20 g/l; and Bacto agar, 15 g/l) Petri plate. This culture was allowed to grow at 22° C. for 4-5 days. Conidia were then harvested by washing the culture plate with sterile distilled water and filtering the liquid through two layers of cheesecloth. The conidial spore concentration was determined using a hemacytometer, and adjusted to 1×10^6 conidia/ml with sterile distilled water.
# Transgenic and non-transgenic potato plants were grown from stem cuttings under sterile conditions as described above in plastic cups containing 50 mls of PM-agar medium. When plants were about 1-2 inches tall, they were removed from the medium and their roots were dipped in the spore suspension (Joaquim et al., 1991). The inoculated plants were then transplanted into 6-inch pots containing Metro-Mix 350 soil. After transplanting, each plant received an additional 5 mls of the spore suspension (1×10^6 condida/ml) on the soil surface around the base of the stem. The pots were placed in a growth chamber under the following conditions: temperature at 20° C., light intensity at […], 12 hr day/12 hr night light cycle, subirrigation with water 2 times/day, 20 minutes soaking each time. Four weeks after inoculation, the plants were scored for disease severity on a scale of 0-100% (Horsfall et al., 1945). To develop a disease progress curve over time, plants were rated once a week for at least 8 weeks.
# Twenty-one independent transgenic potato lines expressing AlfAFP1 were tested for resistance to Verticillium wilt disease. […]
# Table 2 summarizes the qualitative protein expression data for each of the lines, and the disease severity rating of each individual line in the Verticillium wilt disease test determined at 46 days post inoculation. […]
# [2] = tested on: Fusarium culmorum; experiment: Inhibition of fungal hyphal growth (microscopic hyphal length assay); format: cell-based; settings: F. culmorum
# Description: (§1) The antifungal activity of AlfAFP1 (SEQ ID NO:2) is expressed as the concentration in μg/ml required to cause 50% inhibition of fungal hyphal growth (IC50). Percent fungal hyphal growth inhibition is defined as […] of the average hyphae length in the test sample culture divided by the average hyphae length in the control culture in which buffer is added in place of the polypeptide sample.
# (§2) The antifungal activity of AlfAFP1 was determined by measuring the inhibition of fungal hyphal length of a number of different fungi in the presence of this polypeptide under an inverted microscope. Fungal spores (2×10^4 spores/ml) were allowed to germinate for 5 to 15 hours, depending on the fungus used in the test, in 50 μl of double strength testing medium. […] For studies on the antagonistic effect of cations, CaCl2 and KCl were added to final concentrations of 1 mM and 50 mM, respectively. This salt-supplemented medium is referred to as “high salt medium,” and the original medium is referred to as “low salt medium.” After spore germination, 50 μl of a filter-sterilized solution of polypeptide in distilled water were added to the testing well containing the germinated spores, and the mixture was incubated for 15 to 24 hours at 24° C. AlfAFP1 was tested in a concentration range from 0 to 80 μg/ml to determine IC50 values. Polypeptide concentrations were determined using the BCA protein assay kit obtained from Pierce (Rockford, Ill.).
# [3] = tested on: Verticillium dahliae; experiment: as above; format: cell-based; settings: V. dahliae
# Description: as §1, §2
# [4] = high salt medium (1 mM CaCl2 and 50 mM KCl added)
substance,measurement,setting,value
"AlfAFP1: antifungal polypeptide of 45 amino acids isolated from alfalfa (Medicago) seed, SEQ ID NO:2, about 5,186 daltons (RTCENLADKYRGPCFSGCDTHCTTKENAVSGRCRDDFRCWCTKRC; Alfalfa)",Lines with disease severity rated equal to or less than 30%,"[1]; AlfAFP1 expressing potato lines, 46 days post inoculation, controls 1 out of 21 and 1 out of 18",Thirteen out of 21
same,Average Disease Severity (%) (46 Days Post Inoc.),"[1]; average of 21 AlfAFP1 positive potato lines, non-expressors 62.7, vector control 62.2",29.6%
same,Disease severity less than that of the non-expressors or the vector controls,"[1]; average of 21 expressor lines versus 21 non-expressor lines or 18 vector control lines, 46 days post inoculation",52%
same,"IC50 (concentration required to cause 50% inhibition of fungal hyphal growth), High salt",[2]; [4],15 µg/mL
same,"IC50 (concentration required to cause 50% inhibition of fungal hyphal growth), Low salt",[2]; low salt medium,1 µg/mL
same,"IC50 (concentration required to cause 50% inhibition of fungal hyphal growth), High salt",[3]; [4],15 µg/mL
same,"IC50 (concentration required to cause 50% inhibition of fungal hyphal growth), Low salt",[3]; low salt medium,4 µg/mL
